Source: US10471046B2, “Method for treating, preventing, or reducing the risk of skin infection” (Melinta Subsidiary Corp., priority 2014, dated 2019)
Converted amounts (≈) assume the structure as drawn.

system: S. aureus; test: Minimum inhibitory concentrations (MICs) for S. aureus of exemplary compounds (Table 2); format: cell-based; settings: Staphylococcus aureus, minimum inhibitory concentrations for S. aureus; read-out: MICs
How it was run: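 MICs (μg/mL) against S. aureus come from microtiter-tray dilution susceptibility testing per NCCLS M7-A5, comparing growth with and without compound.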

| Structure (SMILES) | MIC [µg/mL] |
| --- | --- |
| CC(=O)NC[C@H]1CN(c2ccc(-c3ccc(CNCc4sc(C)nc4C)cc3)c(F)c2)C(=O)O1 [Compound 4108, N-[3-(4′-{[(2,4-Dimethyl-thiazol-5-ylmethyl)-amino]-methyl}-2-fluoro-biphenyl-4-yl)-2-oxo-oxazolidin-5-(S)-ylmethyl]-acetamide] | 4 (≈ 8.29 µM) |
| CC(=O)NC[C@H]1CN(c2ccc(-c3ccc(S(=O)(=O)Cc4cc[n+]([O-])cc4)cc3)c(F)c2)C(=O)O1 [Compound 3004, N-{3-[2-Fluoro-4′-(1-oxy-pyridin-4-ylmethanesulfonyl)-biphenyl-4-yl]-2-oxo-oxazolidin-5-(S)-ylmethyl}-acetamide] | 4 (≈ 8.01 µM) |
| CC(=O)NC[C@H]1CN(c2ccc(-c3ccc(CN4CC[C@@H](N)C4)cc3)c(F)c2)C(=O)O1 [Compound 1091, N-{3-[4′-(3-(R)-Amino-pyrrolidin-1-ylmethyl)-2-fluoro-biphenyl-4-yl]-2-oxo-oxazolidin-5-(S)-ylmethyl}-acetamide] | 2 (≈ 4.69 µM) |
| CC(=O)NC[C@H]1CN(c2ccc(-c3ccc(CNCC4CCCN4)cc3)c(F)c2)C(=O)O1 (mixture of isomers) [Compound 4279, N-[3-(2-Fluoro-4′-{[(pyrrolidin-2-(R/S)-ylmethyl)-amino]-methyl}-biphenyl-4-yl)-2-oxo-oxazolidin-5-(S)-ylmethyl]-acetamide] | 4 |
| CC(=O)NC[C@H]1CN(c2ccc(-c3ccc(C(C)NCc4ccoc4)cc3)c(F)c2)C(=O)O1 (mixture of isomers) [Compound 4144, N-[3-(2-Fluoro-4′-{1-(R/S)-[(furan-3-ylmethyl)-amino]-ethyl}-biphenyl-4-yl)-2-oxo-oxazolidin-5-(S)-ylmethyl]-acetamide] | 4 |
| CC(=O)NC[C@H]1CN(c2ccc(-c3ccc(CNC(=O)C4CNCCN4)cc3)c(F)c2)C(=O)O1 (mixture of isomers) [Compound 4322, Piperazine-2-(R/S)-carboxylic acid {4′-[5-(S)-(acetylamino-methyl)-2-oxo-oxazolidin-3-yl]-2′-fluoro-biphenyl-4-ylmethyl}-amide] | 2 |
| CC(=O)NC[C@H]1CN(c2ccc(-c3ccc(CNC(=O)Cn4ccnn4)cc3)c(F)c2)C(=O)O1 [Compound 4239, N-{4′-[5-(S)-(Acetylamino-methyl)-2-oxo-oxazolidin-3-yl]-2′-fluoro-biphenyl-4-ylmethyl}-2-[1,2,3]triazol-1-yl-acetamide] | 2 (≈ 4.29 µM) |
| CC(=O)NC[C@H]1CN(c2ccc(-c3ccc([C@@H](O)CNCc4cocn4)cc3)c(F)c2)C(=O)O1 [Compound 4199, N-[3-(2-Fluoro-4′-{1-(R)-hydroxy-2-[(oxazol-4-ylmethyl)-amino]-ethyl}-biphenyl-4-yl)-2-oxo-oxazolidin-5-(S)-ylmethyl]-acetamide] | 4 (≈ 8.54 µM) |
| CC(=O)NC[C@H]1CN(c2ccc(-c3ccc(CNC(=O)[C@@H]4C=CCN4C(=O)OC(C)(C)C)cc3)c(F)c2)C(=O)O1 [Compound 4305, 2-({4′-[5-(S)-(Acetylamino-methyl)-2-oxo-oxazolidin-3-yl]-2′-fluoro-biphenyl-4-ylmethyl}-carbamoyl)-2,5-dihydro-pyrrole-1-(S)-carboxylic acid tert-butylester] | 16 (≈ 29 µM) |
| CC(=O)NC[C@H]1CN(c2ccc(-c3ccc(S(=O)(=O)Cc4ccncc4)cc3)c(F)c2)C(=O)O1 [Compound 3003, N-{3-[2-Fluoro-4′-(pyridin-4-ylmethanesulfonyl)-biphenyl-4-yl]-2-oxo-oxazolidin-5-(S)-ylmethyl}-acetamide] | 2 (≈ 4.14 µM) |
| CC(=O)NC[C@H]1CN(c2ccc(-c3ccc(CNCc4ccccn4)c(F)c3F)c(F)c2)C(=O)O1 [Compound 4090, N-[2-Oxo-3-(2,2′,3′-trifluoro-4′-{[(pyridin-2-ylmethyl)-amino]-methyl}-biphenyl-4-yl)-oxazolidin-5-(S)-ylmethyl]-acetamide] | 4 (≈ 8.26 µM) |
| CC(=O)NC[C@H]1CN(c2ccc(-c3ccc(CCn4ccnn4)cc3)c(F)c2)C(=O)O1 [Compound 1001, N-{3-[2-Fluoro-4′-(2-[1,2,3]triazol-1-yl-ethyl)-biphenyl-4-yl]-2-oxo-oxazolidin-5-(S)-ylmethyl}-acetamide] | 2 (≈ 4.72 µM) |
| CC(=O)NC[C@H]1CN(c2ccc(-c3ccc(CNS(=O)(=O)c4cn(C)cn4)cc3)c(F)c2)C(=O)O1 [Compound 2043, N-(3-{2-Fluoro-4′-[(1-methyl-1H-imidazole-4-sulfonylamino)-methyl]-biphenyl-4-yl}-2-oxo-oxazolidin-5-(S)-ylmethyl)-acetamide] | 2 (≈ 3.99 µM) |
| CC(=O)NC[C@H]1CN(c2ccc(-c3ccc(CNCc4nccn4C)cc3)c(F)c2)C(=O)O1 [Compound 4076, N-[3-(2-Fluoro-4′-{[(1-methyl-1H-imidazol-2-ylmethyl)-amino]-methyl}-biphenyl-4-yl)-2-oxo-oxazolidin-5-(S)-ylmethyl]-acetamide] | 4 (≈ 8.86 µM) |
| CC(=O)NC[C@H]1CN(c2ccc(-c3ccc(CNc4nc(CNC(=O)[C@@H](N)CCCCN)ns4)cc3)c(F)c2)C(=O)O1 [Compound 2014, 2,6-Diamino-hexanoic acid [5-({4′-[5-(acetylamino-methyl)-2-oxo-oxazolidin-3-yl]-2′-fluoro-biphenyl-4-ylmethyl}-amino)-[1,2,4]thiadiazol-3-ylmethyl]-amide] | 2 (≈ 3.34 µM) |

Further lines, results first:

| MIC [µg/mL] | Structure (SMILES) |
| --- | --- |
| 1 (≈ 2.37 µM) | CC(=O)NC[C@H]1CN(c2ccc(-c3ccc(Cn4cc(C)cn4)cc3)c(F)c2)C(=O)O1 [Compound 1052, N-{3-[2-Fluoro-4′-(4-methyl-pyrazol-1-ylmethyl)-biphenyl-4-yl]-2-oxo-oxazolidin-5-(S)-ylmethyl}-acetamide] |
| 0.5 (≈ 1.22 µM) | CC(=O)NC[C@H]1CN(c2ccc(-c3ccc(Cn4cncn4)cc3)c(F)c2)C(=O)O1 [Compound 1037, N-[3-(2-Fluoro-4′-[1,2,4]triazol-1-ylmethyl-biphenyl-4-yl)-2-oxo-oxazolidin-5-(S)-ylmethyl]-acetamide] |
| 2 (≈ 4.13 µM) | CC(=O)NC[C@H]1CN(c2ccc(-c3ccc(CNCc4ccncc4)c(F)c3F)c(F)c2)C(=O)O1 [Compound 4089, N-[2-Oxo-3-(2,2′,3′-trifluoro-4′-{[(pyridin-4-ylmethyl)-amino]-methyl}-biphenyl-4-yl)-oxazolidin-5-(S)-ylmethyl]-acetamide] |
| 0.25 (≈ 0.611 µM) | CC(=O)NC[C@H]1CN(c2ccc(-c3ccc(Cn4ccnn4)cc3)c(F)c2)C(=O)O1 [Compound 1015, N-[3-(2-Fluoro-4′-[1,2,3]triazol-1-ylmethyl-biphenyl-4-yl)-2-oxo-oxazolidin-5-(S)-ylmethyl]-acetamide] |
| 0.25 (≈ 0.612 µM) | CC(=O)NC[C@H]1CN(c2ccc(-c3ccc(Cn4cccn4)cc3)c(F)c2)C(=O)O1 [Compound 1043, N-[3-(2-Fluoro-4′-pyrazol-1-ylmethyl-biphenyl-4-yl)-2-oxo-oxazolidin-5-(S)-ylmethyl]-acetamide] |
| 1 (≈ 1.96 µM) | COC(=O)c1cc(CNCc2ccc(-c3ccc(N4C[C@H](CNC(C)=O)OC4=O)cc3F)cc2)oc1C [Compound 4120, 5-[({4′-[5-(S)-(Acetylamino-methyl)-2-oxo-oxazolidin-3-yl]-2′-fluoro-biphenyl-4-ylmethyl}-amino)-methyl]-2-methyl-furan-3-carboxylic acid methyl ester] |
| 1 (≈ 2.28 µM) | CC(=O)NC[C@H]1CN(c2ccc(-c3ccc([C@H](CO)n4ccnn4)cc3)c(F)c2)C(=O)O1 [Compound 1073, N-{3-[2-Fluoro-4′-(2-hydroxy-1-(R)-[1,2,3]triazol-1-yl-ethyl)-biphenyl-4-yl]-2-oxo-oxazolidin-5-(S)-ylmethyl}-acetamide] |
| 0.5 (≈ 1.07 µM) | CC(=O)NC[C@H]1CN(c2ccc(-c3ccc(CNCc4cccnc4F)cc3)c(F)c2)C(=O)O1 [Compound 4257, N-[3-(2-Fluoro-4′-{[(2-fluoro-pyridin-3-ylmethyl)-amino]-methyl}-biphenyl-4-yl)-2-oxo-oxazolidin-5-(S)-ylmethyl]-acetamide] |
| 0.25 (≈ 0.529 µM) | CC(=O)NC[C@H]1CN(c2ccc(-c3ccc(C[S+]([O-])c4nnnn4C)cc3)c(F)c2)C(=O)O1 (stereo partly drawn) [Compound 2020, N-{3-[2-Fluoro-4′-(1-methyl-1H-tetrazole-5-sulfinylmethyl)-biphenyl-4-yl]-2-oxo-oxazolidin-5-(S)-ylmethyl}-acetamide] |
| 0.5 (≈ 1.1 µM) | CC(=O)NC[C@H]1CN(c2ccc(-c3ccc(CN4CCN(C=O)CC4)cc3)c(F)c2)C(=O)O1 [Compound 1006, N-{3-[2-Fluoro-4′-(4-formyl-piperazin-1-ylmethyl)-biphenyl-4-yl]-2-oxo-oxazolidin-5-(S)-ylmethyl}-acetamide] |
| 0.25 (≈ 0.506 µM) | O=C1O[C@@H](Cn2ccnn2)CN1c1ccc(-c2ccc(CNCCSc3cnn[nH]3)cc2)c(F)c1 [Compound 5007, 3-(2-Fluoro-4′-{[2-(3H-[1,2,3]triazol-4-ylsulfanyl)-ethylamino]-methyl}-biphenyl-4-yl)-5-(R)-[1,2,3]triazol-1-ylmethyl-oxazolidin-2-one] |
| 1 (≈ 2.28 µM) | CC(=O)NC[C@H]1CN(c2ccc(-c3ccc(CNCc4cnco4)cc3)c(F)c2)C(=O)O1 [Compound 4208, N-[3-(2-Fluoro-4′-{[(oxazol-5-ylmethyl)-amino]-methyl}-biphenyl-4-yl)-2-oxo-oxazolidin-5-(S)-ylmethyl]-acetamide] |
| 0.25 (≈ 0.588 µM) | CC(=O)NC[C@H]1CN(c2ccc(-c3ccc(Cn4nnc(N)n4)cc3)c(F)c2)C(=O)O1 [Compound 1024, N-{3-[4′-(5-Amino-tetrazol-2-ylmethyl)-2-fluoro-biphenyl-4-yl]-2-oxo-oxazolidin-5-(S)-ylmethyl}-acetamide] |
| 1 (≈ 2.28 µM) | CC(=O)NC[C@H]1CN(c2ccc(-c3ccc(Cn4cc(CN)nn4)cc3)c(F)c2)C(=O)O1 [Compound 1011, N-{3-[4′-(4-Aminomethyl-[1,2,3]triazol-1-ylmethyl)-2-fluoro-biphenyl-4-yl]-2-oxo-oxazolidin-5-(S)-ylmethyl}-acetamide] |
| 0.25 (≈ 0.501 µM) | CC(=O)NC[C@H]1CN(c2ccc(-c3ccc(CNCc4cnc5ccccc5c4)cc3)c(F)c2)C(=O)O1 [Compound 4021, N-[3-(2-Fluoro-4′-{[(quinolin-3-ylmethyl)-amino]-methyl}-biphenyl-4-yl)-2-oxo-oxazolidin-5-(S)-ylmethyl]-acetamide] |
